The results in this text go back to BindingDB's records for doi:10.1021/jm990236h (University of Michigan, 2000).

The pIC50 is the IC50 on a negative log10 scale, so that one unit is a factor of ten. Low values mean a high IC50, high ones a low IC50.

pIC50: −log10 of the molar value.

One test in a line: Antiviral activity was evaluated by Reverse transcriptase activity in cells acutely infected with HIV-1.
The compound `CCCCCCCC(=O)NC1=NN(C)c2ncnc3c2c1cn3C1O[C@H](CO)[C@@H](O)[C@H]1O` (stereo partly drawn) had a pIC50 of 7.00.
On the same count and under the same terms, with `CCCCCCCCC(=O)NC1=NN(C)c2ncnc3c2c1cn3C1O[C@H](CO)[C@@H](O)[C@H]1O` (stereo partly drawn) the figure was 6.10; with `CCCCCCCCCCCC(=O)NC1=NN(C)c2ncnc3c2c1cn3C1O[C@H](CO)[C@@H](O)[C@H]1O` (stereo partly drawn), 6.00; with `CCCCCCCCCC(=O)NC1=NN(C)c2ncnc3c2c1cn3C1O[C@H](CO)[C@@H](O)[C@H]1O` (stereo partly drawn), 6.60.

A further test in a line: Antiviral activity was evaluated by RT (reverse transcriptase) activity in cells acutely infected with HIV-1.
Regarding `CCCC(=O)NC1=NN(C)c2ncnc3c2c1cn3C1O[C@H](CO)[C@@H](O)[C@H]1O` (stereo partly drawn), the negative logarithm of the IC50 (pIC50) was 6.30.
`CC(=O)NC1=NN(C)c2ncnc3c2c1cn3C1O[C@H](CO)[C@@H](O)[C@H]1O` (stereo partly drawn) showed a pIC50 of 5.17.
Still for that read-out and setting: with `CCCCCCC(=O)NC1=NN(C)c2ncnc3c2c1cn3C1O[C@H](CO)[C@@H](O)[C@H]1O` (stereo partly drawn) the figure was 7.46; with `CCCCC(=O)NC1=NN(C)c2ncnc3c2c1cn3C1O[C@H](CO)[C@@H](O)[C@H]1O` (stereo partly drawn), 6.10.
The same measure, in the same setting: with `CN1N=C(NC(=O)c2ccccc2)c2cn(C3O[C@H](CO)[C@@H](O)[C@H]3O)c3ncnc1c23` (stereo partly drawn) the figure was less than 4.00; with `CCC(=O)NC1=NN(C)c2ncnc3c2c1cn3C1O[C@H](CO)[C@@H](O)[C@H]1O` (stereo partly drawn), 5.08.
In turn, `CC(C)C(=O)NC1=NN(C)c2ncnc3c2c1cn3C1O[C@H](CO)[C@@H](O)[C@H]1O` (stereo partly drawn) had a pIC50 of 5.10.
`CCCCCC(=O)NC1=NN(C)c2ncnc3c2c1cn3C1O[C@H](CO)[C@@H](O)[C@H]1O` (stereo partly drawn) showed a pIC50 of 6.46.
The compound `CN1N=C(NC(=O)C(C)(C)C)c2cn(C3O[C@H](CO)[C@@H](O)[C@H]3O)c3ncnc1c23` (stereo partly drawn) showed a pIC50 of less than 4.00.
